Entries after “also recorded” stand apart in the source; their conditions may differ. Like-named read-outs stand apart in the source and are kept apart here.
What was measured:
[1] = system: SNI-treated rats; test: Sucrose preference test (depression-like behavior) after intra-NAc administration, SNI model; type: in vivo, rat
Text: After SNI, rats develop sensory hypersensitivity, as measured by increased withdrawal response to von Frey filaments (mechanical allodynia) and acetone (cold allodynia) (FIG. 5) (Wang, et al. Anesthesiology 2011; 115: 812-821). The sucrose preference test (SPT) and forced swim test (FST) are used to assess depression. Preference for sucrose over water is a normal hedonic response in rats, whereas a decreased sucrose preference on the SPT represents anhedonia, a typical feature of depression. […] Sham-operated rats only develop depression-like behavior in the immediate postoperative period (FIG. 6C), due to acute incisional pain. These experiments were repeated in the PI model, and sensory and depressive symptoms both develop within 24 hours after paw incision and resolve 7 days later (FIG. 7). Thus, in animal models both acute and chronic postoperative pain cause depressive behavior.
(§1) To block CPARs locally in the NAc, microcannulas were stereotactically implanted bilaterally into the NAc, a technique well established (Carr, et al., Neuroscience 2010; 165: 1074-86). The NAc has anatomically distinct core and shell regions, both of which are involved in mood regulation. […] Sensory hypersensitivity was measured using von Frey filaments (Wang, et al. Anesthesiology 2011; 115: 812-821), whereas locomotion tests were performed using standard protocols (Carr, et al., Pschopharmacology (Berl) 2009; 201: 495-506).

[2] = target: GluA2-lacking AMPA receptors (Homo sapiens, UniProt P42261); details: cited from earlier work; for potentiation of CPARs and calcium impermeable AMPA receptors: literature (Sekiguchi 2002; Quirk 2002)
[3] = system: SNI-treated rats; test: Mechanical hypersensitivity / allodynia (von Frey filaments), SNI model; type: in vivo, rat; details: for sensory hypersensitivity: administered directly into the NAc; for mechanical allodynia: 30 minutes after drug
Procedure: as §1
(§2) The Spared Nerve Injury (SNI) surgery was previously described in detail (Wang et al. Anesthesiology 2011, 115: 812-821). Briefly, under Isoflurane anesthesia (1.5 to 2%), the skin on the lateral surface of the right thigh of rat was incised and a section made through the biceps femoris muscle to expose three branches of the sciatic nerve: sural, common peroneal and tibial nerves. The common peroneal and tibial nerves were tied with non-absorbent 5.0 silk sutures at the point of trifurcation. The nerves were then cut distal to the knot, and about 3 to 5 mm of the distal ends were removed. Muscle layer was then sutured close, while skin was stapled. Staples were removed prior to behavioral testing.
A traditional Dixon up-down method with von Frey filaments was used to measure mechanical allodynia (Wang et al. Anesthesiology 2011, 115: 812-821). In brief, rats were individually placed into plexiglass chambers over a mesh table and acclimated for 20 min before the onset of examination. Beginning with 2.55 g, von Frey filaments in a set with logarithmically incremental stiffness (0.45, 0.75, 1.20, 2.55, 4.40, 6.10, 10.50, 15.10 g) were applied to the lateral ⅓ of right paws (in the distribution of the sural nerve) of animals at least 14 days after SNI surgery, and observers were blinded to the test conditions (CX546 vs. DMSO treatments).

[4] = system: SNI-treated rats; test: Forced swim test, SNI model; type: in vivo, rat; details: 10 mg/kg intraperitoneal, vs DMSO
Text: as §2
On the first session of the test, each animal was placed for fifteen minutes into a standard clear Porsolt chamber with water at 25° C. filled to 25 cm. Afterwards, the animal was taken out of the chamber, dried and put back in its home cage. 24 hours later, the animal was placed into the Porsolt chamber again under the same conditions for 5 min. Both sessions were videotaped, but only the second session was analyzed. Immobility was defined as a lack of movement of the hind paws lasting greater than 1 second. Two independent observers, examined and graded the total time of immobility for each rat, and the average grade was presented for each animal. FST was conducted 14 days after surgeries. […]

[5] = system: SNI-treated rats; test: Cold hypersensitivity / allodynia (acetone), SNI model; type: in vivo, rat
Text: as §2, with “Briefly,” for “The Spared Nerve Injury (SNI) surgery was previously described in detail (Wang et al. Anesthesiology 2011, 115: 812-821). Briefly,”
Animals were individually placed into plexiglass chambers as above and acclimated for 20 min. A drop of acetone was applied to the lateral plantar surface of the paws (in the distribution of the sural nerve). […] 0: no visible response or startle response lasting <0.5 second; 1: paw withdrawal lasting <5 seconds; 2: withdrawal lasting 5 to 10 seconds, +/− licking of the paws; 3: prolonged repetitive withdrawal lasting >10 s. Acetone was applied 5 times to each paw, and an average score was calculated.

[6] = cited from earlier work; for antidepressant effects: literature (Sekiguchi 2002; Quirk 2002); for antidepressant effect on pain-induced depression: SNI model, Wang et al. 2011
[7] = system: GluA1; details: Li et al. 2010; cited from earlier work
[8] = system: SNI-treated rats; details: Wang et al. 2011; cited from earlier work
[9] = administered directly into the NAc, SNI-treated rats, vs saline
[10] = 10 mg/kg intraperitoneal, SNI rats, vs DMSO
[11] = injected into NAc core, SNI-treated rats

Sequence of GluA2-lacking AMPA receptors (P42261 19-906): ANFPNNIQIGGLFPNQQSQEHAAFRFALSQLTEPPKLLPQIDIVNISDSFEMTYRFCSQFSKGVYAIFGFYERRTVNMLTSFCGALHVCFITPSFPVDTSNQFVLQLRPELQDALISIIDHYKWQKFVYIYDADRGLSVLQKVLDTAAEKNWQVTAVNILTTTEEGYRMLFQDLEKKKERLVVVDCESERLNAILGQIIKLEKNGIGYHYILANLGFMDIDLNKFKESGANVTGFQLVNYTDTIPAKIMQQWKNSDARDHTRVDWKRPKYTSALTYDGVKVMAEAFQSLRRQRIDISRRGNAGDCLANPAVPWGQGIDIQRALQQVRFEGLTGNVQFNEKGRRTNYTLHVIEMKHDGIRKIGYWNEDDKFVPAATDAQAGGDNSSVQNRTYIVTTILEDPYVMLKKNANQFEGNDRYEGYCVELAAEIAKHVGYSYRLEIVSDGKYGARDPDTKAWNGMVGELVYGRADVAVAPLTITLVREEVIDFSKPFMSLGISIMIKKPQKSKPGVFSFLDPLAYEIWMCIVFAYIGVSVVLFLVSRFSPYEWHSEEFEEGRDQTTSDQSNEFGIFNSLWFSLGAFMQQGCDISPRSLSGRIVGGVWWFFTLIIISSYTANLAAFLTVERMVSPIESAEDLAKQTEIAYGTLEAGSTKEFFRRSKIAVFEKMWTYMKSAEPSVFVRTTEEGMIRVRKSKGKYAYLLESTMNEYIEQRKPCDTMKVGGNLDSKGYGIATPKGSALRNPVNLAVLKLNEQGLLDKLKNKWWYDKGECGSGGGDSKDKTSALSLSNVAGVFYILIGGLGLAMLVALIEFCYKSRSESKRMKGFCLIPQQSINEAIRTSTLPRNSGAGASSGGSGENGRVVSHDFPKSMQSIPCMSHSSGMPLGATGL

O=C1CCCN1 [2-pyrrolidinone]
sucrose preference (depression-like behavior) [1, 9]: increased sucrose; also recorded: return of sucrose preference to near control (painless) levels | currents of GluA2-lacking AMPA receptors (CPAR currents) ([2]; in vitro, Nishizaki et al. 2002): specifically increase CPAR currents; also recorded: specifically increase the currents of GluA2-lacking AMPA receptors | sensory hypersensitivity ([3]; SNI-treated rats): did not have any effect; also recorded: unaltered

O=C(c1ccc2c(c1)OCCO2)N1CCCCC1 [CX546]
analgesic effect ([3]; 2.5 mg/kg, SNI rats, vs DMSO): does not produce any statistically significant analgesic effect | mechanical allodynia ([3]; 5 mg/kg intraperitoneal, SNI rats, vs DMSO): successfully relieves mechanical allodynia; also recorded: relieve mechanical allodynia | mechanical allodynia [3, 10]: successfully relieves mechanical allodynia; also recorded: relieve mechanical allodynia | immobility on the forced swim test [4]: significantly decreases immobility; also recorded: improves performance on the forced swim test | cold allodynia [5, 10]: relieves cold allodynia

CC(C)S(=O)(=O)NC[C@H](C)c1ccc(-c2ccc(C#N)cc2)cc1 [LY451646]
potentiation of CPARs and calcium impermeable AMPA receptors [2]: potentiate both CPARs and calcium impermeable AMPA receptors | antidepressant effects [6]: antidepressant effects

NCCCNCCCCNCCCNC(=O)Cc1cccc2ccccc12 [NASPM, 1-naphthyl acetyl spermine]
sucrose preference (depression-like behavior) [1, 9]: decrease in sucrose preference; also recorded: enhance depression-like behavior; also recorded: significant further decline in their already reduced sucrose preference; also recorded: reduces sucrose preference | average difference in sucrose preference between NASPM and saline treatment ([1]; based on preliminary data, used for power analysis, STD 0.15): 0.2 | sucrose preference (depression-like behavior) ([1]; injected into NAc core, sham-treated rats): did not show this depression-like behavioral response | sensory hypersensitivity ([3]; SNI-treated rats): does not alter | mechanical hypersensitivity [3, 11]: does not change mechanical hypersensitivity; also recorded: did not alter; also recorded: no effects on mechanical hypersensitivity | cold hypersensitivity [5, 11]: did not alter

NC(=O)COc1c(F)cc(SCCNS(=O)(=O)c2ccccc2)cc1F [PEPA, 4-[2-(phenylsulfonylamino)ethylthio]-2,6-difluorophenoxyacetamide]
potentiation of CPARs and calcium impermeable AMPA receptors [2]: potentiate both CPARs and calcium impermeable AMPA receptors | antidepressant effects [6]: antidepressant effects

CNC1(c2ccccc2Cl)CCCCC1=O (stereo not shown) [ketamine]
GluA1 levels [7]: increase GluA1 levels | sensory pain relief [8]: without exerting long lasting sensory pain relief | antidepressant effect on pain-induced depression [6]: antidepressant properties in the SNI model | antidepressant effect on pain-induced depression ([6]; listed as Ketamine): effectively treat pain-induced depression

From patent US10702513B2, “Methods of treating pain and inducing analgesia” (NEW YORK UNIVERSITY, priority 2012, dated 2020)
